Results on 25 compounds are retold here after patent publication US20250145585A1, “HETEROCYCLIC INHIBITORS OF IGF-1R FOR TREATMENT OF DISEASE” (HORIZON THERAPEUTICS IRELAND DAC, priority 2023, published 2025).

Counter-ions that a name gives are not always drawn.

For this test, the target named is T1, IGF-1R (Homo sapiens, UniProt P08069).
T1 construct: expressed in transfected cells
T1 sequence (P08069 31-1367): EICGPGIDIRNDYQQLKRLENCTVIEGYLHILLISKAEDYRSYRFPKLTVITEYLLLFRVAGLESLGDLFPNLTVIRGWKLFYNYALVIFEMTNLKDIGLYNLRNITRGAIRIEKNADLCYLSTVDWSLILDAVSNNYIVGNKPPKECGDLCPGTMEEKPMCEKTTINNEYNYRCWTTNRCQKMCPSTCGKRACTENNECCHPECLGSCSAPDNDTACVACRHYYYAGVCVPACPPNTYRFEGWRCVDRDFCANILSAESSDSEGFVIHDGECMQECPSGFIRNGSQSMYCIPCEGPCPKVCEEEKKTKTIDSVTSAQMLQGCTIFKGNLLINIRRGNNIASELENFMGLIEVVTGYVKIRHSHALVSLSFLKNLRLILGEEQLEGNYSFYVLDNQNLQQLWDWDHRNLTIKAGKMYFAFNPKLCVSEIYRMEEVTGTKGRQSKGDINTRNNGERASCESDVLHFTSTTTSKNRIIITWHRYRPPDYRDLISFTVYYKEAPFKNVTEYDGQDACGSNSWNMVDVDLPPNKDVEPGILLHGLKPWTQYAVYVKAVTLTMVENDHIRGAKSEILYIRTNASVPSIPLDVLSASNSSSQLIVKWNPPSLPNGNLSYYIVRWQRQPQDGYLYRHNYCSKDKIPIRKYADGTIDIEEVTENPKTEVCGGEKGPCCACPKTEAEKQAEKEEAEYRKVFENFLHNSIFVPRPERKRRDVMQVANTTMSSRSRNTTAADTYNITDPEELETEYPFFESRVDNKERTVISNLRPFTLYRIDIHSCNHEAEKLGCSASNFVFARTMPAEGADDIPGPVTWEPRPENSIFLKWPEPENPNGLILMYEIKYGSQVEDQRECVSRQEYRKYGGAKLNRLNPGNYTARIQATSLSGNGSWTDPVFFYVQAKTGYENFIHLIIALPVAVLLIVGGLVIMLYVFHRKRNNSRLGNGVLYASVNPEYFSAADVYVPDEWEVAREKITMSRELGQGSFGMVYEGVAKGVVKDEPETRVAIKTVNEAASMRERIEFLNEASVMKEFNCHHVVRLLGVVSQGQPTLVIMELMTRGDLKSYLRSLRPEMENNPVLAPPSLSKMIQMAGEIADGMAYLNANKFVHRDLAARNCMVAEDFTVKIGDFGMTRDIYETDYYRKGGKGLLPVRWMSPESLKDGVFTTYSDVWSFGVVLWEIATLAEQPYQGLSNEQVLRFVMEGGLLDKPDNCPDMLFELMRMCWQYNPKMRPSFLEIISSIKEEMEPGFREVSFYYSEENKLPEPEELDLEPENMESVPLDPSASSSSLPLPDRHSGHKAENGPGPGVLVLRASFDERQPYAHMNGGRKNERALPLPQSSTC
As to the kind of experiment: Example B-2: IGF-1R Assay (PathHunter cell lines, EC80 agonist challenge, chemiluminescent detection). Format: cell-based. Particulars: PathHunter cells, compound 60 minutes at 37° C., EC80 agonist 3 hours; read-out: IC50, Biological Activity against IGF-1R (Table B2). The gist of the method:
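PathHunter cells were pre-incubated with compound for 60 min at 37° C (1% vehicle), then challenged with EC80 agonist for 3 h at room temperature. Chemiluminescent detection after 1 h gave % inhibition relative to EC80 and vehicle controls, from which IC50 was derived.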
One may read the IC50 as the concentration at which inhibition is half-maximal. Consider `CC1(C)C(=O)N(c2ccc(S(=O)(=O)C(F)(F)F)cc2)C(=O)N1Cc1ccnc(NC2CCc3cn[nH]c3C2)c1` (stereo not shown) [Compound 325, 5,5-dimethyl-1-((2-((4,5,6,7-tetrahydro-1H-indazol-6-yl)amino)pyridin-4-yl)methyl)-3-(4-((trifluoromethyl)sulfonyl)phenyl) imidazolidine-2,4-dione], for which the IC50 was at most 500 nM.

With `CC1(C)C(=O)N(c2ccc(C#N)c(C(F)(F)F)c2)C(=O)N1Cc1ccnc2c1CC(=O)N2` [Compound 76, 4-(4,4-dimethyl-2,5-dioxo-3-((2-oxo-2,3-dihydro-1H-pyrrolo[2,3-b]pyridin-4-yl)methyl)imidazolidin-1-yl)-2-(trifluoromethyl)benzonitrile], the IC50 lay within 2000 to 10000 nM. The figure for `CC1(C)C(=O)N(c2ccc(S(=O)(=O)C(F)(F)F)cc2)C(=O)N1Cc1ccnc(N[C@H]2CCOC2)c1` [Compound 320, (S)-5,5-dimethyl-1-((2-((tetrahydrofuran-3-yl)amino)pyridin-4-yl)methyl)-3-(4-((trifluoromethyl)sulfonyl)phenyl) imidazolidine-2,4-dione] is at most 500 nM; for `CC1(C)CN(S(C)(=O)=O)c2cc(N3C(=O)N(Cc4ccnc(N[C@H]5CCOC5)c4)C(C)(C)C3=O)ccc21` [Compound 201, (S)-3-(3,3-dimethyl-1-(methylsulfonyl)indolin-6-yl)-5,5-dimethyl-1-((2-((tetrahydrofuran-3-yl)amino)pyridin-4-yl)methyl)imidazolidine-2,4-dione] it is at most 500 nM; for `CC1(C)C(=O)N(c2ccc(S(=O)(=O)C(F)(F)F)cc2)C(=O)N1Cc1ccnc(NC2CCN(S(C)(=O)=O)C2)c1` (stereo not shown) [Compound 329, 5,5-dimethyl-1-((2-((1-(methylsulfonyl)pyrrolidin-3-yl)amino)pyridin-4-yl)methyl)-3-(4-((trifluoromethyl)sulfonyl)phenyl) imidazolidine-2,4-dione] it is 500 to 2000 nM.

On to `CC1(C)C(=O)N(c2ccc3c(c2)OC(F)(F)C32CC2)C(=O)N1Cc1ccnc2c1CC(=O)N2` [Compound 70, 3-(2,2-difluoro-2H-spiro[benzofuran-3,1′-cyclopropan]-6-yl)-5,5-dimethyl-1-((2-oxo-2,3-dihydro-1H-pyrrolo[2,3-b]pyridin-4-yl)methyl)imidazolidine-2,4-dione], for which the concentration for half-maximal inhibition (IC50) was in the range of 2000 to 10000 nM. The figure for `CC(C)Nc1cc(CN2C(=O)N(c3ccc4c(c3)C(O)(O)C(F)(F)S4(=O)=O)C(=O)C2(C)C)ccn1` [Compound 192, 3-(2,2-difluoro-3,3-dihydroxy-1,1-dioxido-2,3-dihydrobenzo[b]thiophen-5-yl)-1-((2-(isopropylamino)pyridin-4-yl)methyl)-5,5-dimethylimidazolidine-2,4-dione] is above 10000 nM; for `Cn1ccc(CNc2cc(CN3C(=O)N(c4ccc5c(c4)N(S(C)(=O)=O)CC5(C)C)C(=O)C3(C)C)ccn2)n1` [Compound 246, 3-(3,3-dimethyl-1-(methylsulfonyl)indolin-6-yl)-5,5-dimethyl-1-((2-(((1-methyl-1H-pyrazol-3-yl)methyl)amino)pyridin-4-yl)methyl)imidazolidine-2,4-dione] it is at most 500 nM. The figure for `C[C@H](CC#N)Nc1cc(CN2C(=O)N(c3ccc(S(=O)(=O)C(F)(F)F)cc3)C(=O)C2(C)C)ccn1` [Compound 331, (R)-3-((4-((5,5-dimethyl-2,4-dioxo-3-(4-((trifluoromethyl)sulfonyl)phenyl)imidazolidin-1-yl)methyl)pyridin-2-yl)amino)butanenitrile] is 500 to 2000 nM; for `CC(C)Nc1cc(CN2C(=O)N(c3ccc(C4(C#N)CC4)cc3)C(=O)C2(C)C)ccn1` [Compound 144, 1-(4-(3-((2-(isopropylamino)pyridin-4-yl)methyl)-4,4-dimethyl-2,5-dioxoimidazolidin-1-yl)phenyl)cyclopropane-1-carbonitrile] it is 500 to 2000 nM.

As for `CC(C)(C#N)c1ccc(N2C(=O)N(Cc3ccnc(N[C@H]4[C@@H]5COC[C@@H]54)c3)C(C)(C)C2=O)cc1` [Compound 162, 2-(4-(3-((2-(((1R,5S,6r)-3-oxabicyclo[3.1.0]hexan-6-yl)amino)pyridin-4-yl)methyl)-4,4-dimethyl-2,5-dioxoimidazolidin-1-yl)phenyl)-2-methylpropanenitrile], the IC50 was at most 500 nM.

For the compound `CC1(C)C(=O)N(c2ccc3c(c2)N(S(C)(=O)=O)CC3)C(=O)N1Cc1ccnc(N[C@H]2[C@@H]3COC[C@@H]32)c1` [Compound 251, 1-((2-(((1R,5S,6r)-3-oxabicyclo[3.1.0]hexan-6-yl)amino)pyridin-4-yl)methyl)-5,5-dimethyl-3-(1-(methylsulfonyl)indolin-6-yl)imidazolidine-2,4-dione], the IC50 is above 10000 nM.

Consider `CC1(C)C(=O)N(c2ccc(S(=O)(=O)C(F)(F)F)cc2)C(=O)N1Cc1ccnc(NC2CCN(S(C)(=O)=O)CC2)c1` [Compound 322, 5,5-dimethyl-1-((2-((1-(methylsulfonyl)piperidin-4-yl)amino)pyridin-4-yl)methyl)-3-(4-((trifluoromethyl)sulfonyl)phenyl) imidazolidine-2,4-dione], for which the IC50 is 500 to 2000 nM.

With `CC1(C)C(=O)N(c2ccc3c(c2)N(S(C)(=O)=O)CC32CCC2)C(=O)N1Cc1ccnc(N[C@H]2[C@@H]3COC[C@@H]32)c1` [Compound 216, 1-((2-(((1R,5S,6r)-3-oxabicyclo[3.1.0]hexan-6-yl)amino)pyridin-4-yl)methyl)-5,5-dimethyl-3-(1′-(methylsulfonyl)spiro[cyclobutane-1,3′-indolin]-6′-yl)imidazolidine-2,4-dione], the IC50 is at most 500 nM. The figure for `COC(C)(C)CNc1cc(CN2C(=O)N(c3ccc4c(c3)N(S(C)(=O)=O)CC43CCC3)C(=O)C2(C)C)ccn1` [Compound 235, 1-((2-((2-methoxy-2-methylpropyl)amino)pyridin-4-yl)methyl)-5,5-dimethyl-3-(1′-(methylsulfonyl)spiro[cyclobutane-1,3′-indolin]-6′-yl)imidazolidine-2,4-dione] is 500 to 2000 nM; for `CC1(C)CN(C(N)=O)c2cc(N3C(=O)N(Cc4ccnc(N[C@H]5[C@@H]6COC[C@@H]65)c4)C(C)(C)C3=O)ccc21` [Compound 253, 6-(3-((2-(((1R,5S,6r)-3-oxabicyclo[3.1.0]hexan-6-yl)amino)pyridin-4-yl)methyl)-4,4-dimethyl-2,5-dioxoimidazolidin-1-yl)-3,3-dimethylindoline-1-carboxamide] it is at most 500 nM.

In the case of `CN1CC(C)(C)c2ccc(N3C(=O)N(Cc4ccnc(N[C@H]5CCOC5)c4)C(C)(C)C3=O)cc21` [Compound 206, (S)-5,5-dimethyl-1-((2-((tetrahydrofuran-3-yl)amino)pyridin-4-yl)methyl)-3-(1,3,3-trimethylindolin-6-yl)imidazolidine-2,4-dione], the IC50 lay in the range of 500 to 2000 nM.

Take `CC1(C)C(=O)N(c2ccc(C3(C(F)(F)F)CC3)cc2)C(=O)N1Cc1ccnc(NCc2ncccn2)c1` [Compound 177, 5,5-dimethyl-1-((2-((pyrimidin-2-ylmethyl)amino)pyridin-4-yl)methyl)-3-(4-(1-(trifluoromethyl)cyclopropyl)phenyl) imidazolidine-2,4-dione]: the IC50 was at most 500 nM. In the case of `CN1C[C@H](Nc2cc(CN3C(=O)N(c4ccc(S(=O)(=O)C(F)(F)F)cc4)C(=O)C3(C)C)ccn2)CC1=O` [Compound 324, (R)-5,5-dimethyl-1-((2-((1-methyl-5-oxopyrrolidin-3-yl)amino)pyridin-4-yl)methyl)-3-(4-((trifluoromethyl)sulfonyl)phenyl) imidazolidine-2,4-dione], the IC50 was in the range of 500 to 2000 nM. The figure for `CC1(C)C(=O)N(c2ccc(C3(C(F)(F)F)CC3)cc2)C(=O)N1Cc1ccnc2c1CCN2` [Compound 33, 1-((2,3-dihydro-1H-pyrrolo[2,3-b]pyridin-4-yl)methyl)-5,5-dimethyl-3-(4-(1-(trifluoromethyl)cyclopropyl)phenyl) imidazolidine-2,4-dione] is at most 500 nM. The same measure for `Cn1nc(C(C)(C)C)cc1N1C(=O)N(Cc2ccnc(N[C@H]3CCOC3)c2)C(C)(C)C1=O` [Compound 261, (S)-3-(3-(tert-butyl)-1-methyl-1H-pyrazol-5-yl)-5,5-dimethyl-1-((2-((tetrahydrofuran-3-yl)amino)pyridin-4-yl)methyl)imidazolidine-2,4-dione]: above 10000 nM; for `CC1(C)C(=O)N(c2ccc(C3(C#N)CCC3)cc2)C(=O)N1Cc1ccnc2c1CC(=O)N2` [Compound 40, (1-(4-(4,4-dimethyl-2.5-dioxo-3-((2-oxo-2,3-dihydro-1H-pyrrolo[2,3-b]pyridin-4-yl)methyl)imidazolidin-1-yl)phenyl)cyclobutane-1-carbonitrile)]: at most 500 nM. The figure for `CC1(C)C(=O)N(c2ccc(C3(C(F)(F)F)CCC3)cc2)C(=O)N1Cc1ccnc2c1CC(=O)N2` [Compound 30, 5,5-dimethyl-1-((2-oxo-2,3-dihydro-1H-pyrrolo[2,3-b]pyridin-4-yl)methyl)-3-(4-(1-(trifluoromethyl)cyclobutyl)phenyl)imidazolidine-2,4-dione hydrochloride] is at most 500 nM. For `CC1(C)COc2cc(N3C(=O)N(Cc4ccnc(N[C@H]5[C@@H]6COC[C@@H]65)c4)C(C)(C)C3=O)ccc21` [Compound 229, 1-((2-(((1R,5S,6r)-3-oxabicyclo[3.1.0]hexan-6-yl)amino)pyridin-4-yl)methyl)-3-(3,3-dimethyl-2,3-dihydrobenzofuran-6-yl)-5,5-dimethylimidazolidine-2,4-dione], the IC50 is at most 500 nM. As for `CC1(C)C(=O)N(c2ccc(C3(C(F)(F)F)CC3)cc2)C(=O)N1Cc1ccnc2c1OCC1(CC1)N2` [Compound 58, 1-((2′H,4′H-spiro[cyclopropane-1,3′-pyrido[3,2-b][1,4]oxazin]-8′-yl)methyl)-5,5-dimethyl-3-(4-(1-(trifluoromethyl)cyclopropyl)phenyl) imidazolidine-2,4-dione], the IC50 was at most 500 nM.
